Results reported in ChEMBL document CHEMBL4002627, “Quinolidene based monocarbonyl curcumin analogues as promising antimycobacterial agents: Synthesis and molecular docking study” (Bioorg Med Chem Lett, 2017).
In brackets after ≈: the same amount, converted by molar mass.

What was measured:
[1] = test system: Mycobacterium tuberculosis; assay: Antimycobacterial activity against dormant state of Mycobacterium tuberculosis H37Ra by two fold dilution method; format: functional
[2] = test system: Mycobacterium tuberculosis; assay: Antimycobacterial activity against dormant state of Mycobacterium tuberculosis H37Ra assessed as growth inhibition at 30 ug/ml after 12 days by XTT reduction menadione assay relative to control; format: functional; settings: 288 h, read-out: GI
[3] = test system: Mycobacterium tuberculosis; assay: Antimycobacterial activity against dormant state of Mycobacterium tuberculosis H37Ra assessed as growth inhibition at 10 ug/ml after 12 days by XTT reduction menadione assay relative to control; format: functional; settings: 288 h, read-out: GI
[4] = test system: Mycobacterium tuberculosis; assay: Antimycobacterial activity against dormant state of Mycobacterium tuberculosis H37Ra assessed as growth inhibition at 3 ug/ml after 12 days by XTT reduction menadione assay relative to control; format: functional; settings: 288 h, read-out: GI
[5] = Cytotoxicity against human MCF7 cells assessed as growth inhibition at 30 ug/ml after 48 hrs by MTT assay relative to control; format: cell-based; settings: read-out: GI
[6] = Cytotoxicity against human MCF7 cells assessed as growth inhibition at 10 ug/ml after 48 hrs by MTT assay relative to control; format: cell-based; settings: read-out: GI
[7] = Cytotoxicity against human MCF7 cells assessed as growth inhibition at 3 ug/ml after 48 hrs by MTT assay relative to control; format: cell-based; settings: read-out: GI
[8] = Cytotoxicity against human A549 cells assessed as growth inhibition at 30 ug/ml after 48 hrs by MTT assay relative to control; format: cell-based; settings: read-out: GI
[9] = Cytotoxicity against human A549 cells assessed as growth inhibition at 10 ug/ml after 48 hrs by MTT assay relative to control; format: cell-based; settings: read-out: GI
[10] = Cytotoxicity against human A549 cells assessed as growth inhibition at 3 ug/ml after 48 hrs by MTT assay relative to control; format: cell-based; settings: read-out: GI
[11] = Cytotoxicity against human HCT116 cells assessed as growth inhibition at 30 ug/ml after 48 hrs by MTT assay relative to control; format: cell-based, HCT-116; settings: read-out: GI
[12] = Cytotoxicity against human HCT116 cells assessed as growth inhibition at 10 ug/ml after 48 hrs by MTT assay relative to control; format: cell-based, HCT-116; settings: read-out: GI
[13] = Cytotoxicity against human HCT116 cells assessed as growth inhibition at 3 ug/ml after 48 hrs by MTT assay relative to control; format: cell-based, HCT-116; settings: read-out: GI
[14] = (§1) Cytotoxicity against human MCF7 cells assessed as growth inhibition after 48 hrs by MTT assay; format: cell-based; settings: MCF7 cells
[15] = test system: MCF7; assay: as §1; format: cell-based; settings: mcf7, 48 h
[16] = (§2) Cytotoxicity against human A549 cells assessed as growth inhibition after 48 hrs by MTT assay; format: cell-based; settings: A549 cells
[17] = test system: A549; assay: as §2; format: cell-based; settings: a549, 48 h
[18] = (§3) Cytotoxicity against human HCT116 cells assessed as growth inhibition after 48 hrs by MTT assay; format: cell-based, HCT-116; settings: HCT116 cells
[19] = test system: HCT-116; assay: as §3; format: cell-based; settings: hct-116, 48 h
[20] = Selectivity index, ratio of GI90 for human MCF7 cells to MIC90 for dormant state of Mycobacterium tuberculosis H37Ra; format: toxicity; settings: read-out: Selectivity Index
[21] = Selectivity index, ratio of GI90 for human A549 cells to MIC90 for dormant state of Mycobacterium tuberculosis H37Ra; format: toxicity; settings: read-out: Selectivity Index
[22] = Selectivity index, ratio of GI90 for human HCT116 cells to MIC90 for dormant state of Mycobacterium tuberculosis H37Ra; format: toxicity; settings: read-out: Selectivity Index
[23] = Selectivity index, ratio of GI90 for human MCF7 cells to MIC90 for dormant state of dormant state of Mycobacterium bovis BCG; format: toxicity; settings: read-out: Selectivity Index
[24] = Selectivity index, ratio of GI90 for human A549 cells to MIC90 for dormant state of dormant state of Mycobacterium bovis BCG; format: toxicity; settings: read-out: Selectivity Index
[25] = Selectivity index, ratio of GI90 for human HCT116 cells to MIC90 for dormant state of dormant state of Mycobacterium bovis BCG; format: toxicity; settings: read-out: Selectivity Index
[26] = test system: Escherichia coli; assay: Antibacterial activity against Escherichia coli ATCC […] after 8 hrs; format: functional
[27] = test system: Pseudomonas fluorescens; assay: Antibacterial activity against Pseudomonas fluorescens ATCC 13525 after 8 hrs; format: functional; settings: ATCC 13525, 8 h
[28] = test system: Staphylococcus aureus; assay: Antibacterial activity against Staphylococcus aureus ATCC 29213 after 12 hrs; format: functional; settings: ATCC 29213, 12 h
[29] = test system: Bacillus subtilis; assay: Antibacterial activity against Bacillus subtilis ATCC 23857 after 12 hrs; format: functional; settings: ATCC 23857, 12 h

Structure (SMILES)	MIC50 [1]	MIC90 [1]	inhibition of growth at 30 µg/mL [2]	inhibition of growth at 10 µg/mL [3]	inhibition of growth at 3 µg/mL [4]	inhibition at 48 h, 30 ug/ml [5]	inhibition at 48 h, 10 ug/ml [6]	inhibition at 48 h, 3 ug/ml [7]	inhibition at 48 h, 30 ug/ml [8]	inhibition at 48 h, 10 ug/ml [9]	inhibition at 48 h, 3 ug/ml [10]	inhibition at 48 h, 30 ug/ml [11]	inhibition at 48 h, 10 ug/ml [12]	inhibition at 48 h, 3 ug/ml [13]	GI50 at 48 h [14]	GI90 [15]	GI50 at 48 h [16]	GI90 [17]	GI50 at 48 h [18]	GI90 [19]	also measured
CN1C/C(=C\c2cc3ccccc3nc2Cl)C(=O)/C(=C/c2cc3ccccc3nc2Cl)C1	6.7 µg/mL (≈ 14.6 µM)	26.5 µg/mL (≈ 57.6 µM)	98%	51.9%	15.6%	35.1%	24.3%	11.4%	-16.9%	0%	-14.6%	-20.1%	-15.2%	-0.3%	> 100 µg/mL	> 100 µg/mL	> 100 µg/mL	> 100 µg/mL	> 100 µg/mL	> 100 µg/mL	selectivity ratio [20]: > 3; selectivity ratio [21]: > 3; selectivity ratio [22]: > 3; selectivity ratio [23]: > 13; selectivity ratio [24]: > 13; selectivity ratio [25]: > 13; MIC50 [26]: > 30 µg/mL; MIC90 [26]: > 30 µg/mL; MIC50 [27]: > 30 µg/mL; MIC90 [27]: > 30 µg/mL; MIC50 [28]: > 30 µg/mL; MIC90 [28]: > 30 µg/mL; MIC50 [29]: > 30 µg/mL; MIC90 [29]: > 30 µg/mL
COc1ccc2cc(/C=C3\CN(C)C/C(=C\c4cc5ccc(OC)cc5nc4Cl)C3=O)c(Cl)nc2c1	2.3 µg/mL (≈ 4.42 µM)	7.8 µg/mL (≈ 15 µM)	98.9%	100%	66.1%	44.1%	-5.5%	-13.4%	0%	0%	0%	14.1%	-1.3%	-8.6%	> 100 µg/mL	> 100 µg/mL	> 100 µg/mL	> 100 µg/mL	> 100 µg/mL	> 100 µg/mL	selectivity ratio [20]: > 12; selectivity ratio [21]: > 12; selectivity ratio [22]: > 12; selectivity ratio [23]: > 10; selectivity ratio [24]: > 10; selectivity ratio [25]: > 10; MIC50 [26]: > 30 µg/mL; MIC90 [26]: > 30 µg/mL; MIC50 [27]: > 30 µg/mL; MIC90 [27]: > 30 µg/mL; MIC50 [28]: > 30 µg/mL; MIC90 [28]: > 30 µg/mL; MIC50 [29]: > 30 µg/mL; MIC90 [29]: > 30 µg/mL
